The text below walks through data of US20030064380A1, “Anergy-regulated molecules” (The Center For Blood Research, Inc., priority 2001, published 2003).

The test system of one experiment is Th1 cells. The experiment is described as follows: cytokine mRNA induction in primary Th1 cells after tolerising pretreatment. It counts as cell-based, mice. As to the method:
The murine Th1 cell clone D5 (Ar-5) was cultured as previously described (Agarwal and Rao, (1998) Immunity 9: 765-775). Primary CD4+T cells were isolated from lymph nodes and spleen of NFAT1−/− or wild type DO11.10 transgenic mice using magnetic beads (Dynal), and differentiated in vitro by stimulating for one week with irradiated APC and 1 μg/ml OVA as previously described (Agarwal and Rao, (1998) Immunity 9: 765-775). Jurkat and Phoenix Ecotropic cells were cultured in Dulbecco's modified Eagle's medium supplemented with 10% fetal calf serum, 10 mM HEPES and 2 mM glutamine.
(§1) Total cellular RNA was purified from resting cells or cells stimulated with APC and antigen or anti-CD3 plus anti-CD28 for 4 h, using Ultraspec reagent (Biotecx) and analyzed using the RiboQuant multiprobe RNase protection kit and specific multi-set probes (Pharmingen) according to the manufacturer's instructions. Jurkat cells were transfected by electroporation in serum-free medium with pulses of 250 V and 960 μF with […] of pEGFPN1 (Clontech) or pNLS-NFAT1 (ST2+5+8) (Okamura et al., (2000) Mol. Cell. 6: 539-550). RNA from transiently transfected Jurkat cells was obtained after selecting transfected cells for expression of a cotransfected murine CD4 plasmid using magnetic beads (Dynal).
Thus the net effect of a tolerising stimulus on T cells is to skew the cytokine response towards production of the immunosuppressive cytokine […], while down-regulating production of multiple other cytokines and chemokines associated with a productive immune response.
The anergised cells were fully responsive to PMA and ionomycin, stimuli which bypass the membrane-proximal steps of TCR signal transduction.

The next experiment has as its system caspase-3. The experiment is described as follows: Western blotting of ionomycin-treated T cells. It counts as cell-based, murine. As to the method:
Total cellular extracts were prepared by boiling cell pellets directly in SDS containing loading buffer to prevent proteolysis during cell lysis. Antibodies against caspase-3 (Santa Cruz) and active caspase-3 (Cell Signaling) were used. The polyclonal antibody 67.1 against NFAT1 has been described (Okamura et al., (2000) Mol. Cell. 6: 539-550).
Of particular interest was the fact that several of the ionomycin-induced genes encoded proteins involved (or potentially involved) in protein degradation. Candidate genes in this category included caspase-3, SOCS-2 and Traf5 (FIG. 6B). Caspase-3 is an enzyme for which commercial reagents are readily available. Tests were conducted to determine whether caspase-3 was activated and functional in ionomycin-pretreated T cells. […] Further work will be necessary to establish whether proteolysis occurs in specific intracellular compartments relevant to TCR signal transduction or whether other signaling proteins are substrates for proteolysis in anergic cells.

The test system of another experiment is D5 T cells. As to the kind of experiment: proliferation assay (3H-thymidine) of D5 T cells after ionomycin pretreatment. It counts as cell-based, murine. As to the method: D5 or primary T cells were stimulated with APC and antigen and pulsed for 24 hours with 10 μCi/ml ^3H-thymidine. DNA was collected using a cell harvester and the amount of radioactivity incorporated was measured in a β-counter.
(§2) The murine antigen-specific Th1 clone D5 was used to set up the model of clonal anergy developed by Schwartz and coworkers (Schwartz, (1996) J. Exp. Med. 184: 1-8).

A further experiment concerns D5 cells. As to the kind of experiment: transcription of inducible genes in ionomycin-treated D5 cells on second stimulation (RNase protection). Type of experiment: cell-based, murine. The note with it: second stimulation with anti-CD3/anti-CD28 or antigen/APC. How it is done:
as §1, §2

Setting [1] is: primary Th1 cells, pretreatment, subsequent stimulation with antigen.

Each structure is given as a SMILES string.

Regarding `C[C@H](CCC(=O)O)C[C@H](C)C[C@H](C)C(=O)/C=C(\O)[C@H](C)C[C@H](C)C/C=C/[C@@H](C)[C@@H](O)[C@@H](C)[C@@H](O)C[C@@H]1CC[C@@](C)([C@H]2CC[C@@](C)([C@@H](C)O)O2)O1` [Ionomycin, ionomycin], the “induction of IL-2 and IFN-γ mRNA” value in the experiment with Th1 cells (NFAT1−/− Th1 cells, after pretreatment) is on record as “perceptible induction”. Besides, in the experiment with Th1 cells (setting [1]), the “effect on Fas-L mRNA” value was “less effect”; the “induction of IL-2, IFN-γ, IL-10, TNF-α and MIP-1α mRNAs” value is recorded as “pronounced decrease”. Further, in the experiment on Th1 cells (wildtype DO11.10 Th1 T cells, pretreatment), the “induction of L-2 and IFN-γ mRNA” value was “markedly decreased”. In the experiment on caspase-3 (ionomycin-treated T cells, 6 h to 16-18 h), the “caspase-3 protein (procaspase 3, p20 and active p17 forms)” value is “induced at the protein level and activated”. The “cleavage of Vav-1, Gads and PKC-theta” value with caspase-3 (treated D5 cells, Western blots) is “minor cleavage”. Further, the “subsequent proliferative response to antigen or anti-CD3” value in the experiment with D5 T cells is “greatly diminished”. Further, in the experiment on D5 cells, the “transcription of inducible genes including IL-2, IFN-γ, TNF-α, GM-CSF and MIP-1α” value was “markedly decreased”.
